Source: patent US12612380B2, “Non-lysosomal glucosylceramidase inhibitors and uses thereof” (ALECTOS THERAPEUTICS INC., priority 2019, dated 2026)
Where two headings read alike, the source gives them in different places.

Experiments:
GBA2 [1] = target: T1, GBA2 (Homo sapiens, UniProt Q9HCG7); test: Determination of IC50 values for inhibition of GBA2 in cell lysate; assay type: biochemical; parameters: host or cells: HEK293T (lentiviral transduction, puromycin selection); used as cellular homogenate
T1 sequence (Q9HCG7 1-927): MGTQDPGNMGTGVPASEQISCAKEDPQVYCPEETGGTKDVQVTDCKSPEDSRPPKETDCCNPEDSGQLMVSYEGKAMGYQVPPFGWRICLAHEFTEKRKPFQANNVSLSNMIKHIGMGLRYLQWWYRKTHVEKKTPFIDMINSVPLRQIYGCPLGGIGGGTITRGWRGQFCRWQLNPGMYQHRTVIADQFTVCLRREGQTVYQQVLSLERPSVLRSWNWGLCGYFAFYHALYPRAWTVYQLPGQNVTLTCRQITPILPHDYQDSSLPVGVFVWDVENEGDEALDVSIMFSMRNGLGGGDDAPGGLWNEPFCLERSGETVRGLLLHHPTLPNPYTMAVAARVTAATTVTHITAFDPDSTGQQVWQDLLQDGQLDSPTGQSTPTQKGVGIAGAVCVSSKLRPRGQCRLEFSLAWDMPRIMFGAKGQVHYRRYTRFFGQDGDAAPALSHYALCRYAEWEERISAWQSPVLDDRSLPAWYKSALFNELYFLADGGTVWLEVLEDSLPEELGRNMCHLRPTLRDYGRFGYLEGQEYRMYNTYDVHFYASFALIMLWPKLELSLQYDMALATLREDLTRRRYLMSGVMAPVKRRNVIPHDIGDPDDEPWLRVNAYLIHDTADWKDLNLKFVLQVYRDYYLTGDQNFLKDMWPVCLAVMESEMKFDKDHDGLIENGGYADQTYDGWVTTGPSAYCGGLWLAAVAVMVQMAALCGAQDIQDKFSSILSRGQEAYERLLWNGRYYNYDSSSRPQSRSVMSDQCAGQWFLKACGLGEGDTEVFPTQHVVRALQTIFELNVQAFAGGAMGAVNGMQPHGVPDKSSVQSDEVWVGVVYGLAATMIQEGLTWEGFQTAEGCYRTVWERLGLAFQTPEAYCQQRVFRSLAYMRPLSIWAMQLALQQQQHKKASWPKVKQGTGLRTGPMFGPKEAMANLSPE
How it was run: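 Fluorogenic 4-MU-β-glucoside (250 μM) turnover over 20 min at 37 °C, pH 5.5, measured after NaOH/glycine stop (ex 365, em 450 nm). Enzyme source: lysate (0.083 mg/mL) of lentivirally transduced GBA2-HEK293T, GCase blocked by 20 μM azaspiro-octanediol; compound preincubated 5 min; IC50 = 50% inhibition concentration.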

GBA2 [2] = target: T1, GBA2; test: Binding specificity (selectivity) for GBA2 over other enzymes; assay type: biochemical; settings: compared to a suitable reference compound, e.g. NB-DNJ (miglustat) or AMP-DNM
Excerpt: In some embodiments, one or more of the compounds according to the invention may specifically bind a GBA2. In alternative embodiments, one or more of the compounds according to the invention may specifically bind the active site of a GBA2. […] In alternative embodiments, one or more of the compounds according to the invention may specifically bind the human non-lysosomal glucosylceramidase (GBA2) over the human lysosomal glucosylceramidase (GCase) and/or the human cytosolic glucosylceramidase (GBA3). In alternative embodiments, one or more of the compounds according to the invention may specifically bind the human non-lysosomal glucosylceramidase (GBA2) over the human glucosylceramide synthase (GCS). In alternative embodiments, one or more of the compounds according to the invention may specifically bind the human non-lysosomal glucosylceramidase (GBA2) over an intestinal alpha-glucosidase, where the intestinal alpha-glucosidase may be a sucrase-isomaltase or a maltase-glucoamylase.

[3] = cellular homogenate of HEK293T cells overexpressing human GBA2, 250 μM 4-methylumbelliferone-β-D glucopyranoside, pH 5.5, 37° C., GCase inhibitor present, read-out: GBA2 IC50

Compound	IC50 (GBA2 [1]; [3])	binding specificity (IC50 or Ki of other molecule / GBA2) (GBA2 [2])	IC50 (GBA2 [1])
C[C@@H]1[C@@H](O)[C@H](O)[C@@H](O)CN1C[C@H]1CC[C@@H](C(C)(C)F)CC1 [Example 13, (2R,3R,4R,5S)-1-(((1s,4S)-4-(2-fluoropropan-2-yl)cyclohexyl)methyl)-2-methylpiperidine-3,4,5-triol]	< 0.1 µM	enhanced binding specificity	
C[C@@H]1[C@@H](O)[C@H](O)[C@@H](O)CN1C[C@H]1CC[C@@H](C2CC2)CC1 [Example 20, (2R,3R,4R,5S)-1-(((1s,4S)-4-cyclopropylcyclohexyl)methyl)-2-methylpiperidine-3,4,5-triol]	< 0.1 µM	enhanced binding specificity	
C[C@@H]1[C@@H](O)[C@H](O)[C@@H](O)CN1CC1CCC2(CCC2)CC1 [Example 24, (2R,3R,4R,5S)-2-methyl-1-(spiro[3.5]nonan-7-ylmethyl)piperidine-3,4,5-triol]	< 0.1 µM	enhanced binding specificity	
CC(C)c1cc(F)c(CCN2C[C@H](O)[C@@H](O)[C@H](O)[C@H]2C)c(F)c1 [Example 51, (2R,3R,4R,5S)-1-(2,6-difluoro-4-isopropylphenethyl)-2-methylpiperidine-3,4,5-triol]		enhanced binding specificity	< 0.1 µM
CC(C)c1ccc(F)c(CCN2C[C@H](O)[C@@H](O)[C@H](O)[C@H]2C)c1F [Example 52, (2R,3R,4R,5S)-1-(2,6-difluoro-3-isopropylphenethyl)-2-methylpiperidine-3,4,5-triol]		enhanced binding specificity	< 0.1 µM
C[C@@H]1[C@@H](O)[C@H](O)[C@@H](O)CN1CCc1c(F)cc(C2CC2)cc1F [Example 53, (2R,3R,4R,5S)-1-(4-cyclopropyl-2,6-difluorophenethyl)-2-methylpiperidine-3,4,5-triol]		enhanced binding specificity	< 0.1 µM
C[C@@H]1[C@@H](O)[C@H](O)[C@@H](O)CN1CCc1c(F)cc(C2CCOCC2)cc1F [Example 54, (2R,3R,4R,5S)-1-(2,6-difluoro-4-(tetrahydro-2H-pyran-4-yl)phenethyl)-2-methylpiperidine-3,4,5-triol]	< 0.1 µM	enhanced binding specificity	
C[C@@H]1[C@@H](O)[C@H](O)[C@@H](O)CN1CCc1c(F)cc(C(F)(F)F)cc1F [Example 55, (2R,3R,4R,5S)-1-(2,6-difluoro-4-(trifluoromethyl)phenethyl)-2-methylpiperidine-3,4,5-triol]		enhanced binding specificity	0.1 to 1 µM
C[C@@H]1[C@@H](O)[C@H](O)[C@@H](O)CN1CCc1c(F)cc(N2CCCC2)cc1F [Example 56, (2R,3R,4R,5S)-1-(2,6-difluoro-4-(pyrrolidin-1-yl)phenethyl)-2-methylpiperidine-3,4,5-triol]	< 0.1 µM	enhanced binding specificity	
C[C@@H]1[C@@H](O)[C@H](O)[C@@H](O)CN1CCc1c(F)cc(N2CCCCC2)cc1F [Example 57, (2R,3R,4R,5S)-1-(2,6-difluoro-4-(piperidin-1-yl)phenethyl)-2-methylpiperidine-3,4,5-triol]	< 0.1 µM	enhanced binding specificity	
C[C@@H]1[C@@H](O)[C@H](O)[C@@H](O)CN1CCc1c(F)cc(N2CCOCC2)cc1F [Example 58, (2R,3R,4R,5S)-1-(2,6-difluoro-4-morpholinophenethyl)-2-methylpiperidine-3,4,5-triol]	< 0.1 µM	enhanced binding specificity	
CCCCOc1cc(F)c(CCN2C[C@H](O)[C@@H](O)[C@H](O)[C@H]2C)c(F)c1 [Example 59, (2R,3R,4R,5S)-1-(4-butoxy-2,6-difluorophenethyl)-2-methylpiperidine-3,4,5-triol]		enhanced binding specificity	< 0.1 µM
C[C@@H]1[C@@H](O)[C@H](O)[C@@H](O)CN1CCc1c(F)cc(OCC2CC2)cc1F [Example 60, (2R,3R,4R,5S)-1-(4-(cyclopropylmethoxy)-2,6-difluorophenethyl)-2-methylpiperidine-3,4,5-triol]		enhanced binding specificity	< 0.1 µM
C[C@@H]1[C@@H](O)[C@H](O)[C@@H](O)CN1CCc1cc2c(cc1F)OCO2 [Example 71, (2R,3R,4R,5S)-1-(2-(6-fluorobenzo[d][1,3]dioxol-5-yl)ethyl)-2-methylpiperidine-3,4,5-triol]		enhanced binding specificity	< 0.1 µM
C[C@@H]1[C@@H](O)[C@H](O)[C@@H](O)CN1CCc1ccc2c(c1)OCCO2 [Example 73, (2R,3R,4R,5S)-1-(2-(2,3-dihydrobenzo[b][1,4]dioxin-6-yl)ethyl)-2-methylpiperidine-3,4,5-triol]		enhanced binding specificity	< 0.1 µM
Cc1ccccc1N1CC[C@H](CN2C[C@H](O)[C@@H](O)[C@H](O)[C@H]2C)C1 [Example 114, (2R,3R,4R,5S)-2-methyl-1-(((R)-1-(o-tolyl)pyrrolidin-3-yl)methyl)piperidine-3,4,5-triol]	< 0.1 µM	enhanced binding specificity	
C[C@@H]1[C@@H](O)[C@H](O)[C@@H](O)CN1C[C@H]1CCN(c2ccccc2C(F)(F)F)C1 [Example 115, (2R,3R,4R,5S)-2-methyl-1-(((R)-1-(2-(trifluoromethyl)phenyl)pyrrolidin-3-yl)methyl)piperidine-3,4,5-triol]	< 0.1 µM	enhanced binding specificity	
C[C@@H]1[C@@H](O)[C@H](O)[C@@H](O)CN1C[C@H]1CCN(c2ccccc2F)C1 [Example 116, (2R,3R,4R,5S)-1-(((R)-1-(2-fluorophenyl)pyrrolidin-3-yl)methyl)-2-methylpiperidine-3,4,5-triol]	< 0.1 µM	enhanced binding specificity	
C[C@@H]1[C@@H](O)[C@H](O)[C@@H](O)CN1C[C@H]1CCN(c2cccc(F)c2)C1 [Example 117, (2R,3R,4R,5S)-1-(((R)-1-(3-fluorophenyl)pyrrolidin-3-yl)methyl)-2-methylpiperidine-3,4,5-triol]	< 0.1 µM	enhanced binding specificity	
C[C@@H]1[C@@H](O)[C@H](O)[C@@H](O)CN1C[C@H]1CCN(c2ccccc2OC(F)(F)F)C1 [Example 118, (2R,3R,4R,5S)-2-methyl-1-(((R)-1-(2-(trifluoromethoxy)phenyl)pyrrolidin-3-yl)methyl)piperidine-3,4,5-triol]	< 0.1 µM	enhanced binding specificity	
C[C@@H]1[C@@H](O)[C@H](O)[C@@H](O)CN1C[C@H]1CCN(c2cccc(C(F)(F)F)n2)C1 [Example 119, (2R,3R,4R,5S)-2-methyl-1-(((R)-1-(6-(trifluoromethyl)pyridin-2-yl)pyrrolidin-3-yl)methyl)piperidine-3,4,5-triol]	< 0.1 µM	enhanced binding specificity	
C[C@@H]1[C@@H](O)[C@H](O)[C@@H](O)CN1C[C@H]1CCN(c2ncccc2C(F)(F)F)C1 [Example 120, (2R,3R,4R,5S)-2-methyl-1-(((R)-1-(3-(trifluoromethyl)pyridin-2-yl)pyrrolidin-3-yl)methyl)piperidine-3,4,5-triol]	< 0.1 µM	enhanced binding specificity	
